Type in all cases: biochemical
In one assay the target is PI3Kα (p110α/p85α)(h) (Homo sapiens, UniProt P42336). As to the kind of experiment: Assay for phosphatidylinositol 3-kinase alpha (PI3Kα) activity, PI3K-HTRF kit. The settings on record: TR-FRET; enzyme 0.3625 μg/ml, 10 μM PIP2, 10 μM ATP. Here is the method:
[The source words this procedure for another target and says it was used here with some conditions changed.] (§1) The compounds of the present invention were assayed for the activity of phosphatidylinositol 3-kinase gamma (PI3Kγ) by using a PI3K enzyme-homogenous time resolved fluorescence (PI3K-HTRF) kit, which is available from Upstate (Millipore Co, Billerica, Mass., USA).
(§2) Three kinds of buffer solutions including a phosphorylation reaction solution (a reaction buffer containing 40 mM MgCl2 which is available from Upstate was diluted 4 times and added with 5 mM DTT), a stop solution (STOP A and B solutions which are available from Upstate were mixed at a ratio of 3:1) and a fluorescence detection solution (Detection solutions A, B and C which are available from Upstate were mixed at a ratio of 1:1:18) were prepared. 1 mM of PIP2 substrate (phosphatidylinositol 4,5 biphosphate; Upstate), PI3Kγ (#14-558; Upstate) enzyme and 10 mM ATP (Sigma Aldrich Co., St. Louis, Mo., USA) were prepared. Each of PI3Kγ, 1 mM PIP2 and 10 mM ATP was diluted to 2.9 μg/ml (final reaction concentration: 1.45 μg/ml), 20 μM (final reaction concentration: 10 μM) and 40 μM (final reaction concentration: 10 μM), respectively. The buffer solution used for dilution and preparation process was the phosphorylation reaction solution. The stop solution was used for the termination of phosphorylation reaction, and the fluorescence detection solution was used for the detection of time-resolved fluorescence signals.
(§3) Each test sample was transferred to a 384 well low flange white flat bottom microplate (#3572, Corning Life Sciences, Lowell, Mass., USA) by using a multi 8-channel (Pipetman Neo multi 8×20, Gilson, Middleton, Wis., USA) to make a final phosphorylation reaction volume of 20 μl per each well. For the negative control, 5 μl of 14.4% DMSO and 10 μl of PIP2 substration solution were used, and 5 μl of 14.4% DMSO and 10 μl of PIP2/PI3Kγ mixed solution were used as the positive control. For the test group, 5 μl of a solution prepared by dissolving the compound obtained in Example in DMSO and 10 μl of PIP2/PI3Kγ mixed solution were used. Before the initiation of the phosphorylation reaction, sample compounds were pretreated with the enzyme for approximately 10 minutes, and then the phosphorylation reaction was induced by adding 5 μl of ATP. Since each of the test compound and ATP takes up 25% of the total volume, and PIP2 and PI3Kγ take up 50% of the total volume during the reaction, each solution was concentrated 4 and 2 times, respectively, before mixing the solutions. Subsequently, the test sample was gently shook for 3 minutes and subjected to a phosphorylation reaction for 90 minutes at room temperature, which was then added with 5 μl of the stop solution to terminate the phosphorylation reaction. In order to induce a time-resolved fluorescence reaction, 5 μl of the fluorescence detection solution was added to the sample. The fluorescence detection solution contains biotin-phosphatidylinositol 3,4,5-triphosphate (PIP3), streptavidin-labeled Allopycocyanin (APC) and europium-labeled Pleckstrin homology domain (the PIP3 binds to PH domain), and the time-resolved fluorescence reaction is induced by a series of reaction of PH domain and PIP3, and biotin and streptavidin. The sample was left to stand for 6 hours at room temperature, and the time-resolved fluorescence resonance energy transfer (TR-FRET) rate was measured (emission wavelength: 665 nm, 620 nm, excitation wavelength: 340 nm) by using a Flexstation3 Micro plate reader (Molecular Devices, USA). TR-FRET Rate and TR-Inhibition Rate were calculated based on Equations 1 and 2 below, and the results are expressed in IC50, which is the concentration of a compound that inhibits 50% of PI3Kγ activity in vitro. TR-FRET Rate=(665 nm emission wavelength/620 nm emission wavelength)×10000 <Equation 1> TR-FRET Inhibition Rate=[(TR-FRET Rate of Sample−TR-FRET Rate of Negative Control)/(TR-FRET Rate of Positive Control−TR-FRET Rate of Negative Control)]×100 <Equation 2>
(TR-FRET usually uses a lanthanide donor and a delayed reading to cut background.)

The target of a further assay is PI3K β (p110β/p85α)(h) (Homo sapiens, UniProt P42338). The assay can be described thus: Assay for phosphatidylinositol 3-kinase beta (PI3Kβ) activity, PI3K-HTRF kit. Particulars: TR-FRET; enzyme 0.725 μg/ml, 10 μM PIP2, 10 μM ATP. Here is the method:
[The source words this procedure for another target and says it was used here with some conditions changed.] as §1, §2
as §3, with “2> […]” for “2>”

In the next assay the target is PI3Kδ (p110δ/p85α)(h) (Homo sapiens, UniProt O00329). The assay can be described thus: Assay for phosphatidylinositol 3-kinase delta (PI3Kδ) activity, PI3K-HTRF kit. Particulars: TR-FRET; enzyme 0.725 μg/ml, 10 μM PIP2, 10 μM ATP. Here is the method: [The source words this procedure for another target and says it was used here with some conditions changed.] as §1, §2
as §3, with “2> […]” for “2>”

The target in the next assay is PI3Kγ (p120γ)(h) (Homo sapiens, UniProt P48736). As to the kind of experiment: Assay for phosphatidylinositol 3-kinase gamma (PI3Kγ) activity, PI3K-HTRF kit. The settings on record: TR-FRET; enzyme 1.45 μg/ml, 10 μM PIP2, 10 μM ATP. Here is the method:
as §1, §2, §3

Chain of PI3Kα (p110α/p85α)(h) (P42336 whole entry): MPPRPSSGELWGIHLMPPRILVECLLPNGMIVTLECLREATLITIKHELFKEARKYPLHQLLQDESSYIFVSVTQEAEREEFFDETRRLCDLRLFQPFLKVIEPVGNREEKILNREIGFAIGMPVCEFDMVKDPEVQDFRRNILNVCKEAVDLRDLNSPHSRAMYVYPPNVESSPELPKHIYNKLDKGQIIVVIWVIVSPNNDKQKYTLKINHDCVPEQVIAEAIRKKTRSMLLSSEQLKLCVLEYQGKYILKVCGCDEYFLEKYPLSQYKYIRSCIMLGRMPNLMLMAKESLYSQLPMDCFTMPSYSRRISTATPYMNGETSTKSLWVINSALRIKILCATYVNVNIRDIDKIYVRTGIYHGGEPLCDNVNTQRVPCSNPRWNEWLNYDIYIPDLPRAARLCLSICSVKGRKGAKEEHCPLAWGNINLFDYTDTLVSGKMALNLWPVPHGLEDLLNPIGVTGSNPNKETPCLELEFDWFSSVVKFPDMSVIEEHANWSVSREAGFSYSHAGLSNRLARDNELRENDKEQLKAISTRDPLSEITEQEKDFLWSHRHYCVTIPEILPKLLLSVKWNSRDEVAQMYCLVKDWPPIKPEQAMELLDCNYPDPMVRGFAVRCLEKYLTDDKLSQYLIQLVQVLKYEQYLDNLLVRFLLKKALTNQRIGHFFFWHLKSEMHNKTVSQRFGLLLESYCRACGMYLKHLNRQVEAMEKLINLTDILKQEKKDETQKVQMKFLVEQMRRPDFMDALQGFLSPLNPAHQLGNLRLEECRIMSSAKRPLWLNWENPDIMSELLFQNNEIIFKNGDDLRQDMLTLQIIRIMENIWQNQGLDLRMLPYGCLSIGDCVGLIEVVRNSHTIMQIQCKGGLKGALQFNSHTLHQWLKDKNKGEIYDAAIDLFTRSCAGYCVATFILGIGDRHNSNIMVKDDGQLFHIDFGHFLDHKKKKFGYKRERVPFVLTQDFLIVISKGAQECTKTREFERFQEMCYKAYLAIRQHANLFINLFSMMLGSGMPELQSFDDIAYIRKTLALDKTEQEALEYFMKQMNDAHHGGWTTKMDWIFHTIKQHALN
Chain of PI3Kα (p110α/p85α)(h) (P27986 whole entry partner): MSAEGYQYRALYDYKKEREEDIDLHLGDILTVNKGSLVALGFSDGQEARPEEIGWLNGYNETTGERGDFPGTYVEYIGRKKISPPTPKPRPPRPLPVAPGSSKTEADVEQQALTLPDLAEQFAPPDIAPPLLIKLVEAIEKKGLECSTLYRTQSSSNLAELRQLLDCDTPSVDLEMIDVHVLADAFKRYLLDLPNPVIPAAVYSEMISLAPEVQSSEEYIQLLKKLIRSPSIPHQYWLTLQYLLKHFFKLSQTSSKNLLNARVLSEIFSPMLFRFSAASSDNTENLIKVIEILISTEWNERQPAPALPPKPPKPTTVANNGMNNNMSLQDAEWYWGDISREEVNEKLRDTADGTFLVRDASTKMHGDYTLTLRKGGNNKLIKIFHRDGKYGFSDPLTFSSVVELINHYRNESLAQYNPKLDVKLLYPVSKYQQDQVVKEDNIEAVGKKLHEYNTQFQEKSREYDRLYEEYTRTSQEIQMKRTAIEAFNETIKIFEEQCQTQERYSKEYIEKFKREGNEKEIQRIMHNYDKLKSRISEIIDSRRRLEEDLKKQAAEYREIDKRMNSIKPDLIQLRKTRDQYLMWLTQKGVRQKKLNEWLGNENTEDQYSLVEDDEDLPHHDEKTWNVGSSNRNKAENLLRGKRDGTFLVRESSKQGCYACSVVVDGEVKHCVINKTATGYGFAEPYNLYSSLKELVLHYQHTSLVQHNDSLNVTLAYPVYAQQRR
Chain of PI3Kδ (p110δ/p85α)(h) (O00329 whole entry): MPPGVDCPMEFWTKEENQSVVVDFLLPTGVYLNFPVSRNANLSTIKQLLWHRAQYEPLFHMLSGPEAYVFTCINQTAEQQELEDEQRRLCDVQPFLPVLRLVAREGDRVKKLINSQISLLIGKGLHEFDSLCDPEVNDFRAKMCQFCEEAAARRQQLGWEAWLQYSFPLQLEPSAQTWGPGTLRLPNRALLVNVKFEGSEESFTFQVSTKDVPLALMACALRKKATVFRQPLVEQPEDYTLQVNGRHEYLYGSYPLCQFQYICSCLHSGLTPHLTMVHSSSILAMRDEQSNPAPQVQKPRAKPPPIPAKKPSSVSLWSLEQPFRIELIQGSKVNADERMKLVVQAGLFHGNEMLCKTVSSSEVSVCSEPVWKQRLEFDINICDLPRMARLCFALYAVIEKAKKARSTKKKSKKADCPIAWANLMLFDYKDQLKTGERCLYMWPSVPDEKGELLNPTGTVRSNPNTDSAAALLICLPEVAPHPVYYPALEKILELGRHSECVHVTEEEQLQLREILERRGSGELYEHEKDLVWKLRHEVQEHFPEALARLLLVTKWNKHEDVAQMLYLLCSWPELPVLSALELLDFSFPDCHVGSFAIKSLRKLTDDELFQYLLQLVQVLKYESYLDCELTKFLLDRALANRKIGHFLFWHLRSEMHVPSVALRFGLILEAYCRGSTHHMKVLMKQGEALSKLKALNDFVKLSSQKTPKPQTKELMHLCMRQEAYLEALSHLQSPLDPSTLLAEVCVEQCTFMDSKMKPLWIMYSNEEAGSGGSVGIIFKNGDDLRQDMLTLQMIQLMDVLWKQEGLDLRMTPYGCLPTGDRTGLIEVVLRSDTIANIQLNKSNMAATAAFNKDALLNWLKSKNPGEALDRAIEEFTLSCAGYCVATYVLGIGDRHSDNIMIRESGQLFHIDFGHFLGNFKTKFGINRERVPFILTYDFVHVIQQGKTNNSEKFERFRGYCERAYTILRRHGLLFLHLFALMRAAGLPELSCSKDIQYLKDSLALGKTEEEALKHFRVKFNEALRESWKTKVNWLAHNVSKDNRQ
Chain of PI3Kδ (p110δ/p85α)(h) (P27986 whole entry partner): as the sequence (P27986 whole entry partner) above
Chain of PI3K β (p110β/p85α)(h) (P42338 whole entry): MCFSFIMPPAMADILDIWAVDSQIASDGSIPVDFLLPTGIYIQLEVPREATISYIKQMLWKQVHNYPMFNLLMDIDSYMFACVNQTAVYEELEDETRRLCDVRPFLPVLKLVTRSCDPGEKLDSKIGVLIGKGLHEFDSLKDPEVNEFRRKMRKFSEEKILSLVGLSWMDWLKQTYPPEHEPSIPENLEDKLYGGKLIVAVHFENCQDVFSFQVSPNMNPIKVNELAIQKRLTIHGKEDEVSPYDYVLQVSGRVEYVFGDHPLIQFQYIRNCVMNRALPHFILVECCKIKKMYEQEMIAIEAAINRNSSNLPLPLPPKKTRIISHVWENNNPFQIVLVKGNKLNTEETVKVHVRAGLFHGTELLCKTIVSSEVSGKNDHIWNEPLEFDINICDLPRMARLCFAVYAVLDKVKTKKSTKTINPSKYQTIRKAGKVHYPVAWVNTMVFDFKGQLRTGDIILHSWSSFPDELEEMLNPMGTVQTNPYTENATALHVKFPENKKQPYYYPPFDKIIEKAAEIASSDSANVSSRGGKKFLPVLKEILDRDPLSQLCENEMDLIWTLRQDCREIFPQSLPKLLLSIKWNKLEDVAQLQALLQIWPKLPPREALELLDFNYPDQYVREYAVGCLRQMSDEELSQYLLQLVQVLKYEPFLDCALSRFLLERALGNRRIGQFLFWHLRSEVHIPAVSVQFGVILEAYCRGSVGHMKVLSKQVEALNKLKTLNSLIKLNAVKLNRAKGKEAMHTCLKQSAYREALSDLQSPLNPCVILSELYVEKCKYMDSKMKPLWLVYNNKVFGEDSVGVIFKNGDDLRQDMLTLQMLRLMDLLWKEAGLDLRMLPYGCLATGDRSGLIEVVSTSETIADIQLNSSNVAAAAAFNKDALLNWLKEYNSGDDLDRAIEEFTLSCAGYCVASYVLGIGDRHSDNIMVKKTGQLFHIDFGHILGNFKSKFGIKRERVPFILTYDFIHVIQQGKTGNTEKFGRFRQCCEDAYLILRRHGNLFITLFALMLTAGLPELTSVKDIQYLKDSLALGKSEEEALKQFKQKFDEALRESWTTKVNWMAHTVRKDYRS
Chain of PI3K β (p110β/p85α)(h) (P27986 whole entry partner): as the sequence (P27986 whole entry partner) above
Chain of PI3Kγ (p120γ)(h) (P48736 whole entry): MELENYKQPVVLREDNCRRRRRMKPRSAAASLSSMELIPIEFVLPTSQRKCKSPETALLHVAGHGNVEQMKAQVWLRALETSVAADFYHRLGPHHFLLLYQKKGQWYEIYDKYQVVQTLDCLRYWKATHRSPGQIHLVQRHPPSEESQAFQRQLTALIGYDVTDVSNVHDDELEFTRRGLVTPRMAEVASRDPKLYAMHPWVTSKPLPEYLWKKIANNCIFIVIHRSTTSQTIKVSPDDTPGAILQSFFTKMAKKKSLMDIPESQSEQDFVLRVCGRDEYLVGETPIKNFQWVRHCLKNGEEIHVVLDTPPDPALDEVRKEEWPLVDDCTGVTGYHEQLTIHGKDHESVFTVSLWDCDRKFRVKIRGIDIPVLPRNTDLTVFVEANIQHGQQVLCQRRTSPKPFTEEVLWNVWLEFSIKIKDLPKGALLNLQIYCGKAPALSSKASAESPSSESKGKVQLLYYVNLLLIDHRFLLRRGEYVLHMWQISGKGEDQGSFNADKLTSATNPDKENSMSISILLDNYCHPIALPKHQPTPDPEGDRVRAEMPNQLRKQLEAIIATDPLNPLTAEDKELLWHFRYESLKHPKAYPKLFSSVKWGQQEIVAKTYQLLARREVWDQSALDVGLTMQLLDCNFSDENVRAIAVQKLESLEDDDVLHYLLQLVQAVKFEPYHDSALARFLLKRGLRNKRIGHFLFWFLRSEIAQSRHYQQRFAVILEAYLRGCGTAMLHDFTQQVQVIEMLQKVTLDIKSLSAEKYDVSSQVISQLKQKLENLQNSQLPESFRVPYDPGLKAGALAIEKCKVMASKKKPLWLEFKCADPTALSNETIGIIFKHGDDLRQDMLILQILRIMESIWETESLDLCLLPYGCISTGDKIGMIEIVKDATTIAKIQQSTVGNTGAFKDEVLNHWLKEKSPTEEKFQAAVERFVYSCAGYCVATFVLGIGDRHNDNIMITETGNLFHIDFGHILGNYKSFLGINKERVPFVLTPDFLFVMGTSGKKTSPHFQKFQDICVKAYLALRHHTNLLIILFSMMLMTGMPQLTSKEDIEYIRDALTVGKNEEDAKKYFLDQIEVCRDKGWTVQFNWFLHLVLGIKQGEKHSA

Regarding `COc1c(C)cc(-c2cncc3cc(/C=C4\SC(=S)NC4=O)oc23)cc1C` [Example 196, (Z)-5-[7-(4-Methoxy-3,5-dimethylphenyl)furo[3,2-c]pyridin-2-ylmethylene]-2-thioxothiazolidin-4-one], the half-maximal inhibitory concentration (IC50) on PI3Kα (p110α/p85α)(h) is 10 nM; at PI3K β (p110β/p85α)(h) it was above 10000 nM; on PI3Kδ (p110δ/p85α)(h), above 10000 nM; at PI3Kγ (p120γ)(h), 7 nM.

As for `Cc1cc(-c2cncc3cc(/C=C4\SC(=S)NC4=O)oc23)cc(C)c1OC(C)C` [Example 197, (Z)-5-[{7-(4-Isopropoxy-3,5-dimethylphenyl)furo[3,2-c]pyridin-2-yl}methylene]-2-thioxothiazolidin-4-one], the half-inhibitory concentration (IC50) was 121 nM at PI3Kα (p110α/p85α)(h), above 10000 nM at PI3K β (p110β/p85α)(h), above 10000 nM against PI3Kδ (p110δ/p85α)(h) and 5 nM on PI3Kγ (p120γ)(h).

As for `COc1cc(-c2cncc3cc(/C=C4\SC(=S)NC4=O)oc23)cc(Cl)c1O` [Example 217, (Z)-5-[{7-(3-Chloro-4-hydroxy-5-methoxyphenyl)furo[3,2-c]pyridin-2-yl}-methylene]-2-thioxothiazolidin-4-one], the 50% inhibitory concentration (IC50) was found to be 1 nM on PI3Kα (p110α/p85α)(h), 77 nM against PI3K β (p110β/p85α)(h), 563 nM on PI3Kδ (p110δ/p85α)(h) and 3 nM at PI3Kγ (p120γ)(h).

As to `COc1ncc(-c2cncc3cc(/C=C4\SC(=S)NC4=O)oc23)cc1C` [Example 225, (Z)-5-[{7-(6-Methoxy-5-methylpyridin-3-yl)furo[3,2-c]pyridin-2-yl}methylene]-2-thioxothiazolidin-4-one], the IC50 against PI3Kα (p110α/p85α)(h) was 4 nM; on PI3K β (p110β/p85α)(h) it was above 10000 nM; on PI3Kδ (p110δ/p85α)(h), above 10000 nM; against PI3Kγ (p120γ)(h), 43 nM.

Take `O=C1NC(=O)/C(=C/c2cc3cncc(-c4ccc(S(=O)(=O)N5CCCCC5)cc4)c3o2)S1` [Example 262, (Z)-5-([7-{4-(Piperidin-1-ylsulfonyl)phenyl}furo[3,2-c]pyridin-2-yl]methylene)thiazolidine-2,4-dione]: the concentration for half-maximal inhibition (IC50) against PI3Kα (p110α/p85α)(h) was 33 nM; at PI3K β (p110β/p85α)(h), above 10000 nM; against PI3Kδ (p110δ/p85α)(h), above 10000 nM; at PI3Kγ (p120γ)(h) it was 38 nM.

As to `O=C1NC(=O)/C(=C/c2cc3cncc(-c4ccc(S(=O)(=O)NCCO)cc4)c3o2)S1` [Example 263, (Z)-4-[2-{(2,4-Dioxothiazolidin-5-ylidene)methyl}furo[3,2-c]pyridin-7-yl]-N-(2-hydroxyethyl)benzenesulfonamide], the IC50 against PI3Kα (p110α/p85α)(h) stood at 16 nM; against PI3K β (p110β/p85α)(h), 1400 nM; on PI3Kδ (p110δ/p85α)(h), 2500 nM; against PI3Kγ (p120γ)(h) it was 28 nM.

Take `CNS(=O)(=O)c1ccc(-c2cncc3cc(/C=C4\SC(=O)NC4=O)oc23)cc1F` [Example 279, (Z)-4-[2-{(2,4-Dioxothiazolidin-5-ylidene)methyl}furo[3,2-c]pyridin-7-yl]-2-fluoro-N-methylbenzenesulfonamide]: the IC50 at PI3Kα (p110α/p85α)(h) came out at 40 nM; against PI3K β (p110β/p85α)(h), 480 nM; at PI3Kδ (p110δ/p85α)(h) it was 747 nM; against PI3Kγ (p120γ)(h), 17 nM.

In the case of `CN(C)S(=O)(=O)c1ccc(-c2cncc3cc(/C=C4\SC(=O)NC4=O)oc23)cc1F` [Example 280, (Z)-4-[2-{(2,4-Dioxothiazolidin-5-ylidene)methyl}furo[3,2-c]pyridin-7-yl]-2-fluoro-N,N-dimethylbenzenesulfonamide], the 50% inhibitory concentration (IC50) at PI3Kα (p110α/p85α)(h) came out at 46 nM; against PI3K β (p110β/p85α)(h) it was 1110 nM; against PI3Kδ (p110δ/p85α)(h), 3000 nM; on PI3Kγ (p120γ)(h) it was 22 nM.

On to `Cc1cc(-c2cncc3cc(/C=C4\SC(=O)NC4=O)oc23)ccc1S(=O)(=O)N1CCOCC1` [Example 307, (Z)-5-([7-{3-Methyl-4-(morpholinosulfonyl)phenyl}furo[3,2-c]pyridin-2-yl]methylene)thiazolidine-2,4-dione], for which the IC50 is 14 nM on PI3Kα (p110α/p85α)(h), 1940 nM at PI3K β (p110β/p85α)(h), 52 nM at PI3Kδ (p110δ/p85α)(h) and 15 nM at PI3Kγ (p120γ)(h).

With `Cc1cc(-c2cncc3cc(/C=C4\SC(=O)NC4=O)oc23)ccc1S(=O)(=O)NC(C)(C)C` [Example 310, (Z)—N-tert-Butyl-4-[2-{(2,4-dioxothiazolidin-5-ylidene)methyl}furo[3,2-c]pyridin-7-yl]-2-methylbenzenesulfonamide], the concentration for half-maximal inhibition (IC50) against PI3Kα (p110α/p85α)(h) came to 11 nM; at PI3K β (p110β/p85α)(h), 1940 nM; on PI3Kδ (p110δ/p85α)(h), 220 nM; on PI3Kγ (p120γ)(h), 12 nM.

On to `COc1ncc(-c2cncc3cc(/C=C4\SC(=S)NC4=O)oc23)cc1C#N` [Example 328, (Z)-2-Methoxy-5-[2-{(4-oxo-2-thioxothiazolidin-5-ylidene)methyl}furo[3,2-c]pyridin-7-yl]nicotinonitrile], for which the IC50 against PI3Kα (p110α/p85α)(h) was 15 nM; on PI3K β (p110β/p85α)(h), 630 nM; at PI3Kδ (p110δ/p85α)(h), above 10000 nM; on PI3Kγ (p120γ)(h) it was 56 nM.

In the case of `CN(C)S(=O)(=O)c1ccc(-c2cncc3cc(/C=C4\SC(=S)NC4=O)oc23)cc1F` [Example 330, (Z)-2-Fluoro-N,N-dimethyl-4-[2-{(4-oxo-2-thioxothiazolidin-5-ylidene)methyl}furo[3,2-c]pyridin-7-yl]benzenesulfonamide], the half-inhibitory concentration (IC50) was 24 nM at PI3Kα (p110α/p85α)(h), above 10000 nM on PI3K β (p110β/p85α)(h), above 10000 nM against PI3Kδ (p110δ/p85α)(h) and 12 nM against PI3Kγ (p120γ)(h).

On to `CS(=O)(=O)c1c(F)cc(-c2cncc3cc(/C=C4\SC(=S)NC4=O)oc23)cc1F` [Example 332, (Z)-5-([7-{3,5-Difluoro-4-(methylsulfonyl)phenyl}furo[3,2-c]pyridin-2-yl]methylene)-2-thioxothiazolidin-4-one], for which the IC50 against PI3Kα (p110α/p85α)(h) was 10 nM; at PI3K β (p110β/p85α)(h), above 10000 nM; at PI3Kδ (p110δ/p85α)(h) it was 9300 nM; against PI3Kγ (p120γ)(h) it was 19 nM.

As usually defined, the IC50 is the concentration that gives 50% inhibition.

The values are drawn from patent US9493478B2, “Fused ring compound containing furan or salt thereof and pharmaceutical composition comprising same” (YUHAN CORPORATION, priority 2012, dated 2016).
